These results are taken from US20260272936A1, “TREATMENT OF CANCER WITH A PARG INHIBITOR” (858 Therapeutics, Inc., priority 2023, published 2026).

One test has as its system HCC1806 cells. Put plainly: 6-day growth assay, Compound 1 in combination with exatecan. In kind it is cell-based. The conditions noted are these: Homo sapiens. Here is the method: (§1) The activity of Compound 1 in combination with exatecan was evaluated in the HCC1954, HCC1806, and GP2D cancer cell lines in a 6-day growth assay. HCC1954 (Cat #CRL-2338) and HCC1806 (Cat #CRL-2335) cells were obtained from American Type Culture Collection (ATCC) and maintained in ATCC modified RPMI (Cat #30-2001)+10% FBS (Cat #A3160502)+1% penicillin/streptomycin (Cat #15140-122) in a humidified incubator at 37° C., 5% CO2. GP2D cells were obtained from ECACC (Cat #95090714-1VL) and maintained in DMEM+GlutaMAX (Cat #10566-016)+10% FBS (Cat #A3160502)+1% penicillin/streptomycin (Cat #15140-122). Cells were seeded at 2,500 cells/well (HCC1954 and GP2D) or 2,000 cells/well (HCC1806) in 100 μL of growth medium in a 96-well plate (Corning costar Cat #3603) and allowed to adhere overnight at 37° C. with 5% CO2. The next day, serial dilutions of Compound 1 and exatecan were prepared and added to the corresponding wells of a 96-well plate. A solution of 0.1% DMSO in medium was used as the negative control. Cells were incubated with compound for 6 days at 37° C. with 5% CO2, then fixed, stained, and counted as described in Example 3. Concentration response-curves and IC50 values were generated by non-linear regression analysis using a 4-parameter variable slope fit in GraphPad Prism 10 software. Potential synergy between Compound 1 and exatecan was assessed using Zero interaction potency (ZIP), Highest Single Agent (HSA), Bliss, and Loewe synergy models to find the most synergistic area score, where scores >10 indicate that the interaction between the two drugs is likely to be synergistic (Ianevski et al. 2020).

A further test concerns HCC1954 cells. The test is described as above. In kind it is cell-based. Conditions: Homo sapiens. The procedure: as §1
Test [1] deals with Resistant SNU601 cells (acquired niraparib resistance). Put plainly: 6-day proliferation, nuclei count, PARP inhibitor resistant line. The format is cell-based, human. The procedure:
The SNU601 gastric carcinoma cell line (Creative Bioarray, Cat #CSC-C9686L) was cultured in RPMI media containing glutamax, 10% fetal bovine serum, and 1% penicillin/streptomycin at 37° C., 5% CO2. To generate a PARP inhibitor resistant cell line, an IC20 concentration of niraparib was added to the culture media.
Compound 1 and the PARP inhibitor niraparib were tested in cellular proliferation assays using the parental SNU601 cell line and the SNU601 cell line with acquired PARPi resistance. For the proliferation assays, cells were plated in 96-well plates (Corning costar 3603) at 2500-5000 cells/well in normal growth media. The next day, compound dissolved in vehicle (0.5% DMSO in media) was added to generate a 7- to 10-point concentration curve with half-log dilutions and starting concentrations of 10 or 31.6 μM. After 6 days of compound or vehicle treatment, the cells were fixed with a solution of 8% paraformaldehyde, 0.2% Triton X-100 for 20 minutes. After washing the cells with PBS, the nuclei were stained by the addition of DAPI (4′,6-diamidino-2-phenylindole) and incubation for 20 minutes. The number of nuclei in each well were counted by imaging the plates on an Image Xpress Pico automated cell imaging system (Molecular Devices). The percent proliferation after treatment was determined by normalizing the number of nuclei in treated wells to the vehicle-treated wells. Concentration-response-curves and IC50 values for percent inhibition of proliferation were generated by non-linear regression analysis using GraphPad Prism 10 software.

Consider `[2H]C([2H])(c1cnn(C)c1)N1C(=O)c2cc(S(=O)(=O)NC3(C)CC3)ccc2N2C1=NC[C@H]2C` [Compound 1, (R)-1-methyl-4-((1-methyl-1H-pyrazol-4-yl)methyl-d2)-N-(1-methylcyclopropyl)-5-oxo-1,2,4,5-tetrahydroimidazo[1,2-a]quinazoline-7-sulfonamide], for which the IC50 in the test with HCC1806 cells (exatecan 0.001 nM) was 1900 nM; with HCC1806 cells (exatecan 0.01 nM), 1500 nM; in the test with HCC1806 cells (exatecan 0.03 nM), 1200 nM; with HCC1806 cells (exatecan 0.1 nM), 300 nM; in the test on HCC1954 cells (exatecan 0.001 nM), 6900 nM; in the test with HCC1954 cells (exatecan 0.01 nM) it was 7200 nM. In addition, the IC50 stood at 6600 nM with HCC1954 cells (exatecan 0.03 nM); 5200 nM in the test with HCC1954 cells (exatecan 0.1 nM); 900 nM in the test with HCC1954 cells (exatecan 0.3 nM); 320 nM in test [1] (Homo sapiens, SNU-601, 144 h, read-out: IC50 inhibition of proliferation). Besides, in test [1], the “better potency than niraparib in PARPi resistant SNU601” value is recorded as 10 ×.
